# pIC50: −log10 of the molar value.
# What was measured:
# [1] = target: HER2 exon 20 insertion mutant (HER2ex20insYVMA, A775_G776insYVMA) (Homo sapiens, UniProt P04626, DUP772-775); assay: Inhibitory action (in vitro) against HER2 exon 20 insertion mutant phosphorylation activity; assay type: biochemical; conditions: 30 min pre-incubation, ATP 200 μM, 25° C. 220 minutes
# Source text: In order to determine conditions for a method of measuring the in vitro inhibitory activity of a compound against HER2 exon 20 insertion mutant phosphorylation activity, as in the case of HER2, ProfilerPro Peptide 22 was used as a substrate. A purified recombinant human HER2 exon 20 insertion mutant (A775_G776insYVMA) protein is shown in SEQ ID NO: 7, and was purchased from SignalChem. Upon the measurement of the inhibitory activity of the compound, first, the compound of the present invention was diluted stepwise with dimethyl sulfoxide (DMSO). Subsequently, the HER2 exon 20 insertion mutant protein and the compound of the present invention in DMSO solution (final concentration of DMSO: 5%) were added into a buffer for the kinase reaction (13.5 mM Tris (pH 7.5), 2 mM dithiothreitol, and 0.009% Tween 20), and the obtained mixture was then pre-incubated at 25° C. for 30 minutes. Thereafter, the substrate peptide (final concentration: 1 μM), manganese chloride (final concentration: 25 mM), magnesium chloride (final concentration: 20 mM), and ATP (final concentration: 200 μM) were added into the reaction mixture, and the thus obtained mixture was then incubated at 25° C. for 220 minutes, so that the kinase reaction was carried out. To the reaction solution, EDTA was added to a final concentration of 30 mM, so as to terminate the reaction. Finally, using LabChip (registered trademark) EZ Reader II (PerkinElmer), an unphosphorylated substrate peptide (S) and a phosphorylated peptide (P) were separated and detected according to microchannel capillary electrophoresis.
# [2] = system: NCI-N87 cells; assay: Growth inhibitory activity against HER2 expressing cell line NCI-N87; assay type: cell-based; conditions: Homo sapiens, NCI-N87, 72 h; 3 days, CellTiter-Glo 2.0
# Experimental: NCI-N87 cells as a HER2 overexpressing human stomach cancer cell line (American Type Culture Collection, Cat No. ATCC (registered trademark) CRL-5822) were suspended in an RPMI640 medium (Wako Pure Chemical Industries, Ltd.) supplemented with 10% fetal bovine serum. Subsequently, the cell suspension was seeded in each well of a 96-well flat-bottom microplate, and was then cultured in a 5% carbon dioxide gas-containing culture vessel at 37° C. for 1 day. Thereafter, the compound of the present invention was dissolved in DMSO, and the compound was diluted to 1000 times the final concentration in DMSO. The compound in the DMSO solution was diluted with the medium used in the suspension of the cells, and the obtained solution was then added to each well of the culture plate, so that the final concentration of DMSO became 0.1%. Regarding a control well, DMSO was diluted with the medium used in the suspension of the cells, and the obtained solution was then added to each well of the culture plate, so that the final concentration of DMSO became 0.1%. After addition of a drug solution, the obtained mixture was further cultured in the 5% carbon dioxide gas-containing culture vessel at 37° C. for 3 days. After completion of the culture for 3 days in the presence of the compound, the cells were counted using CellTiter-Glo 2.0 (manufactured by Promega) in accordance with the protocols recommended by Promega. The growth inhibition percentage was calculated according to the following equation. […] Growth inhibitory percentage (%)=(C−T)/(C)×100 T: Emission intensity from the well to which the test compound was added C: Emission intensity from the well to which the test compound was not added
# [3] = system: SK-BR-3 cells; assay: Growth inhibitory activity against HER2 expressing cell line SK-BR-3; assay type: cell-based; conditions: Homo sapiens, SK-BR-3, 72 h; 3 days, CellTiter-Glo 2.0
# Experimental: SK-BR-3 cells as a HER2 overexpressing human breast cancer cell line were suspended in a McCoy's 5a medium (manufactured by Life Technologies) supplemented with 10% fetal bovine serum. The cell suspension was seeded in each well of a 384-well flat-bottom microplate, and was then cultured in a 5% carbon dioxide gas-containing culture vessel at 37° C. for 1 day. Thereafter, the compound of the present invention was dissolved in DMSO, and the compound was diluted to 500 times the final concentration in DMSO. The compound in the DMSO solution was diluted with DMSO solution or the medium used in the suspension of the cells, and the obtained solution was then added to each well of the culture plate so that the final concentration of DMSO was 0.2%. The obtained mixture was further cultured in the 5% carbon dioxide gas-containing culture vessel at 37° C. for 3 days. After completion of the culture for 3 days in the presence of the compound, the cells were counted using CellTiter-Glo 2.0 (manufactured by Promega), and the growth inhibition percentage was then calculated according to the following equation. […] Growth inhibitory percentage (%)=(C−T)/(C)×100 T: Emission intensity from the well to which the test compound was added C: Emission intensity from the well to which the test compound was not added
# [4] = Evaluation of oral absorbability; assay type: in vivo, BALB/cA mice; conditions: mouse; plasma, oral 50 mg/kg/day, BALB/cA mice
# Experimental: The compound of the present invention was suspended or dissolved in 0.5% HPMC aqueous solution and 0.1 N hydrochloric acid, and the obtained suspension or solution was orally administered to BALB/cA mice (CLEA Japan, Inc.) at a dose of 50 mg/kg/day. At 0.5, 1, 2, 4 and 6 hours after completion of the oral administration, blood was collected from the facial vein over time, so as to obtain plasma. The concentration of the compound in the obtained plasma was measured by LC-MS/MS, and the oral absorbability of the present compound was evaluated.
# [5] = target: Ba/F3-HER2insYVMA cells (Homo sapiens, UniProt P04626, DUP772-775, cells depend on it); assay: Growth inhibitory activity against HER2 exon 20 insertion mutant expressing cell line; assay type: cell-based, mouse; conditions: 3 days, CellTiter-Glo 2.0, read-out: HER2ex20insYVMA cell growth inhibitory activity IC50 value
# Sequence of Ba/F3-HER2insYVMA cells (P04626 with tags, fused parts or gaps DUP772-775): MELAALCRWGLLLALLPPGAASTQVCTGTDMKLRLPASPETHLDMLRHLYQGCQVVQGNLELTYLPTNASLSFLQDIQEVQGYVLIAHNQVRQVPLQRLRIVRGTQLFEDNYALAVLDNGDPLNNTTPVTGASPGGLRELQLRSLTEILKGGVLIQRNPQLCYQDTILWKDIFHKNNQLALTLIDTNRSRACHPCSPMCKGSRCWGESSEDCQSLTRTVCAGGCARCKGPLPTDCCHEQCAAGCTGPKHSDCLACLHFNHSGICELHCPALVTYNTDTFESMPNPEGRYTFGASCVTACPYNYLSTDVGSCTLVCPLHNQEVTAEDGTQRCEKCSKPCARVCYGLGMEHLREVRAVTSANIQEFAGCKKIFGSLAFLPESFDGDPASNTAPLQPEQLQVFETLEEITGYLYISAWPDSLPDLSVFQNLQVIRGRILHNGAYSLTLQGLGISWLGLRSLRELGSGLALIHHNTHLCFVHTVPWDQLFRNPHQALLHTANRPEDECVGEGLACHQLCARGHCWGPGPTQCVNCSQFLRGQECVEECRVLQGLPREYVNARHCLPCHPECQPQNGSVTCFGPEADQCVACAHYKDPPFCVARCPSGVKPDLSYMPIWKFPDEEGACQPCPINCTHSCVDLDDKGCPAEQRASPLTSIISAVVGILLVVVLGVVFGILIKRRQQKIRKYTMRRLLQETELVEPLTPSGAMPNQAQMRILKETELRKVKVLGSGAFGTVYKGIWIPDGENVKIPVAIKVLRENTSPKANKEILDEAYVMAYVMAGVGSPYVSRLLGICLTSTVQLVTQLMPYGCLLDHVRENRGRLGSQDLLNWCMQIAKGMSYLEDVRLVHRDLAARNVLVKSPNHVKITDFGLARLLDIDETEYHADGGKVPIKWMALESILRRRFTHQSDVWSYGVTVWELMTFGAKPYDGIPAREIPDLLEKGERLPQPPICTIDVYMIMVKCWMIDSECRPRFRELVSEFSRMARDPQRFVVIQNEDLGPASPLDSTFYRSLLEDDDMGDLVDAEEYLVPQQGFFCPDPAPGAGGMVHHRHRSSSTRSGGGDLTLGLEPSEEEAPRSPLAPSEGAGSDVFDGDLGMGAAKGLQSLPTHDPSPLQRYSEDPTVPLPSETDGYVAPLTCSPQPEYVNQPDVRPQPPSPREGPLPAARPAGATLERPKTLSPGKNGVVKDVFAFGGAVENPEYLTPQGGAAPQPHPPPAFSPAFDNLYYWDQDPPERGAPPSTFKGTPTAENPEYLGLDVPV
# Experimental: Growth inhibitory activity against the HER2 exon 20 insertion mutant was measured using Ba/F3 cells that were a mouse B lymphocyte precursor cell line, into which a human HER2 exon 20 insertion mutant gene had been introduced. The Ba/F3 cells were maintained in an RPMI-1640 medium (Thermo Fisher Scientific) supplemented with 10% fetal bovine serum (FBS), 100 U/mL penicillin, 100 μg/mL streptomycin (Thermo Fisher Scientific) and 1 ng/mL mouse interleukin-3 (mIL-3) (CST).
# Upon evaluation of cell growth inhibitory activity, the Ba/F3-HER2insYVMA cells were suspended in an RPMI-1640 medium supplemented with 10% FBS, 100 U/mL penicillin, and 100 μg/mL streptomycin. The cell suspension was seeded in each well of a 96-well flat-bottom microplate, and was then cultured in a 5% carbon dioxide gas-containing culture vessel at 37° C. for 1 day. The compound of the present invention was dissolved in DMSO, and was then diluted with DMSO or the medium used in the suspension of the cells. The obtained solution was then added to each well of the culture plate, so that the final concentration of DMSO became 0.2%. The obtained mixture was further cultured in the 5% carbon dioxide gas-containing culture vessel at 37° C. for 3 days. After completion of the culture for 3 days in the presence of the compound, the cells were counted using CellTiter-Glo 2.0 (manufactured by Promega), and the growth inhibition percentage was then calculated according to the following equation. […] Growth inhibitory percentage (%)=(C−T)/(C)×100 T: Emission intensity from the well to which the test compound was added C: Emission intensity from the well to which the test compound was not added
# [6] = target: T1, HER2 (Homo sapiens, UniProt P04626); assay: Inhibitory effect (in vitro) on HER2 phosphorylation activity; assay type: biochemical; conditions: recombinant human HER2, ATP 5 μM, 25° C. 30 minutes
# T1 construct: purchased Carna Biosciences, Inc
# T1 sequence (P04626 23-1255): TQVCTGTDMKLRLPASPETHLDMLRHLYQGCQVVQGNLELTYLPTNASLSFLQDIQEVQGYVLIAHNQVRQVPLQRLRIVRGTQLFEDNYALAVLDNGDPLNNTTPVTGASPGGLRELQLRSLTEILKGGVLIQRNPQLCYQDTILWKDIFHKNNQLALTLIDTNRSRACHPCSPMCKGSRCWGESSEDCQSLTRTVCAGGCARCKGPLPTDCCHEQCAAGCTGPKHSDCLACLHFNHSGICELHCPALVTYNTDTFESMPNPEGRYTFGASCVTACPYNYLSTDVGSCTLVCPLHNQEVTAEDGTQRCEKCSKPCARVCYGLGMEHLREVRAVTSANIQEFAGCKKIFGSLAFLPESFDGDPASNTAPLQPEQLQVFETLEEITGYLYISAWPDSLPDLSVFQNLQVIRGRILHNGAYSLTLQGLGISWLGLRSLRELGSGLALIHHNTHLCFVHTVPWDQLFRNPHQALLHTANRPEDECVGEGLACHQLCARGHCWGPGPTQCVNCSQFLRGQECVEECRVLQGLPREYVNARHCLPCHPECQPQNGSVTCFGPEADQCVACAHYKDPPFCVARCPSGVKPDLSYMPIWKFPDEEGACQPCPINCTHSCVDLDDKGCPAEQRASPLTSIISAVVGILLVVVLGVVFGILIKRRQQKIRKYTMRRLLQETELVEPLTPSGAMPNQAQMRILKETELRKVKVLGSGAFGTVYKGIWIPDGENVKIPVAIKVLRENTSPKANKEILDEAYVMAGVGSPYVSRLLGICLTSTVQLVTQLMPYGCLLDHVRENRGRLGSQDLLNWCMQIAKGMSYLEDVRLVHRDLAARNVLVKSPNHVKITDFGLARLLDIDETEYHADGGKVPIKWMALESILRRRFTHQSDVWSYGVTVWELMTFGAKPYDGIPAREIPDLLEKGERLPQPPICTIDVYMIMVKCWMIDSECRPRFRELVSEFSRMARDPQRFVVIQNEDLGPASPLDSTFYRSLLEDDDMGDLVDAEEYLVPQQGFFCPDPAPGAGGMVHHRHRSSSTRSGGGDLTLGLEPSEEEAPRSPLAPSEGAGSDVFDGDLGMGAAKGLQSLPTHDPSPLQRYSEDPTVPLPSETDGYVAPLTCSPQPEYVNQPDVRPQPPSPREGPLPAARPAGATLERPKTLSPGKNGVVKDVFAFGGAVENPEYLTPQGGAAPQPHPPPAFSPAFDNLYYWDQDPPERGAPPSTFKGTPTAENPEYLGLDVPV
# Source text: In order to determine conditions for a method of measuring the in vitro inhibitory activity of a compound against HER2 phosphorylation activity, based on the report regarding a HER2 kinase reaction using, as a substrate, a peptide having the same sequence (5-FAM-[…]-CONH2) as that of ProfilerPro Peptide 22 of PerkinElmer (Xie H et al., PLoS One. 2011; 6(7): e21487), ProfilerPro Peptide 22 was used as a substrate. A purified recombinant human HER2 protein used in the present test was purchased from Carna Biosciences, Inc. Upon the measurement of the inhibitory activity of the compound, first, the compound of the present invention was diluted stepwise with dimethyl sulfoxide (DMSO). […] To the reaction solution, EDTA was added to a final concentration of 30 mM, so as to terminate the reaction. Finally, using LabChip (registered trademark) EZ Reader II (PerkinElmer), an unphosphorylated substrate peptide (S) and a phosphorylated peptide (P) were separated and detected according to microchannel capillary electrophoresis.
# [7] = system: p-gp or Bcrp; conditions: Non Patent Literature 5; cited from earlier work
# [8] = system: brain metastatic cancer; conditions: clinical tests, Non Patent Literatures 6-9; cited from earlier work
# [9] = non-clinical tests, Non Patent Literature 5; cited from earlier work
# Sequence of HER2 exon 20 insertion mutant (HER2ex20insYVMA, A775_G776insYVMA) (P04626 with tags, fused parts or gaps DUP772-775): as the sequence (P04626 with tags, fused parts or gaps DUP772-775) above
pIC50 [1],pIC50 [3],AUC(0-t) [4],GI50 [5],pIC50 [6],SMILES,pIC50 [2],substrate of p-gp or Bcrp [7],effects against brain metastatic cancer [8],brain penetration properties [9]
9.41,7.92,15 µM·h,40 nM,8.31,"C=CC(=O)N1C[C@H](n2c(C#CC)c(C(=O)N[C@H](C)c3ccc(F)cc3F)c3c(N)ncnc32)C[C@@H]1C [Example 7, 7-((3R,5S)-1-acryloyl-5-methylpyrrolidin-3-yl)-4-amino-N—((R)-1-(2,4-difluorophenyl)ethyl)-6-(prop-1-yn-1-yl)-7H-pyrrolo[2,3-d]pyrimidine-5-carboxamide]",7.95,,,
9.38,8.15,34 µM·h,40 nM,8.34,"C=CC(=O)N1C[C@H](n2c(C#CC(C)C)c(C(=O)NC(C)(C)c3ccccc3F)c3c(N)ncnc32)C[C@@H]1C [Example 15, 7-((3R,5S)-1-acryloyl-5-methylpyrrolidin-3-yl)-4-amino-N-(2-(2-fluorophenyl)propan-2-yl)-6-(3-methylbut-1-yn-1-yl)-7H-pyrrolo[2,3-d]pyrimidine-5-carboxamide]",7.94,,,
8.96,7.77,6.1 µM·h,50 nM,8.36,"C=CC(=O)N1C[C@H](n2c(C#CC3CC3)c(C(=O)N[C@H](C)c3ccccc3)c3c(N)ncnc32)C[C@@H]1COCC [Example 19, 7-((3R,5R)-1-acryloyl-5-(ethoxymethyl)pyrrolidin-3-yl)-4-amino-6-(cyclopropylethynyl)-N—((R)-1-phenylethyl)-7H-pyrrolo[2,3-d]pyrimidine-5-carboxamide]",8.10,,,
,,,,,CS(=O)(=O)CCNCc1ccc(-c2ccc3ncnc(Nc4ccc(OCc5cccc(F)c5)c(Cl)c4)c3c2)o1 [Lapatinib],,substrates of p-gp or Bcrp,sufficient effects of these agents could not be obtained,limited
,,,,,CCOc1cc2ncc(C#N)c(Nc3ccc(OCc4ccccn4)c(Cl)c3)c2cc1NC(=O)/C=C/CN(C)C [Neratinib],,substrates of p-gp or Bcrp,sufficient effects of these agents could not be obtained,limited
